This note sets out measurements from patent US20070027150A1 (priority 2005, published 2007).

Molecules are shown by their SMILES. Bounds are passed on as bounds.

The target in one assay is His-tagged N-terminal ATP binding domain (amino acid residues 9-236) of HSP90α (Homo sapiens, UniProt P07900). Put plainly: HSP90 inhibitor binding potency: TRF competition binding assay. As to conditions: Table I; read-out: Hsp90 IC50 Range. The procedure, abridged:
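Competition against biotinylated radicicol for binding to the His-tagged 9-236 ATP domain of HSP90α: 2 h, room temperature, HEPES/MgCl2/KCl/BSA buffer. Streptavidin capture, then europium-labeled anti-His antibody and enhancement solution; europium counts give IC50.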
By IC50 is commonly meant the concentration at which inhibition is half-maximal. Take `COc1ccnc(-c2ccccc2C2CC(=O)c3c(C)nc(N)nc3C2)c1` (stereo not drawn) [Compound 125, 2-amino-7-[2-(4-methoxy-pyridin-2-yl)-phenyl]-4-methyl-7,8-dihydro-6H-quinazolin-5-one]: the IC50 was less than 1000 nM.

As for `Cc1nc(N)nc2c1C(=O)CC(c1ccc(F)cc1-c1cncnc1)C2` (stereo not drawn) [Compound 60, 2-amino-7-(4-fluoro-2-pyrimidin-5-yl-phenyl)-4-methyl-7,8-dihydro-6H-quinazolin-5-one], the IC50 is less than 1000 nM.

As for `Cc1nc(N)nc2c1C(=O)CC(c1ccccc1-c1ccc(F)cc1F)C2` (stereo not drawn) [Compound 84, 2-amino-7-(2′,4′-difluoro-1,1′-biphenyl-2-yl)-4-methyl-7,8-dihydroquinazolin-5(6H)-one], the IC50 is less than 1000 nM.

`Cc1nc(N)nc2c1C(=O)CC(c1ccccc1Oc1cnccn1)C2` (stereo not drawn) [Compound 143, 2-amino-4-methyl-7-[2-(pyrazin-2-yloxy)phenyl]-7,8-dihydroquinazolin-5(6H)-one]: the IC50 is less than 1000 nM.

As to `COc1cccc(Br)c1C1CC(=O)c2c(C)nc(N)nc2C1` (stereo not drawn) [Compound 18, 2-amino-7-(2-bromo-6-methoxy-phenyl)-4-methyl-7,8-dihydro-6H-quinazolin-5-one], the IC50 lay within 1000 to 10000 nM.

As for `Cc1nc(N)nc2c1C(=O)CC(c1ccccc1Oc1ccccc1F)C2` (stereo not drawn) [Compound 138, 2-amino-7-[2-(2-fluorophenoxy)phenyl]-4-methyl-7,8-dihydroquinazolin-5(6H)-one], the IC50 was less than 1000 nM.

Staying with this assay, now noted: Table II; read-out: Hsp90 IC50 Range.
As for `CCc1nc(N)nc2c1C(=O)CC(c1ccc(F)cc1-c1cnc(N)c(OC)n1)C2` (stereo not drawn) [Compound 335, 2-amino-7-[2-(5-amino-6-methoxy-pyrazin-2-yl)-4-fluoro-phenyl]-4-ethyl-7,8-dihydro-6H-quinazolin-5-one], the IC50 is less than 1000 nM.

For `C#CCCOc1cc(F)ccc1C1CC(=O)c2c(C)nc(N)nc2C1` (stereo not drawn) [Compound 192, 2-amino-7-(2-but-3-ynyloxy-4-fluoro-phenyl)-4-methyl-7,8-dihydro-6H-quinazolin-5-one], the IC50 was less than 1000 nM.

Consider `Cc1nc(N)nc2c1C(=O)CC(c1nccn1-c1cccc(OC(F)(F)F)c1)C2` (stereo not drawn) [Compound 198, 2-amino-4-methyl-7-[1-(3-trifluoromethoxy-phenyl)-1H-imidazol-2-yl]-7,8-dihydro-6H-quinazolin-5-one], for which the IC50 is more than 10000 nM.

As to `Cc1nc(N)nc2c1C(=O)CC(c1ccc(F)cc1-c1cccc(C(F)(F)F)n1)C2` (stereo not drawn) [Compound 279, 2-amino-7-[4-fluoro-2-(6-trifluoromethyl-pyridin-2-yl)-phenyl]-4-methyl-7,8-dihydro-6H-quinazolin-5-one], the IC50 is less than 1000 nM.

With `Cc1nc(N)nc2c1C(=O)CC(c1ccc(F)cc1-c1cccc(Cl)n1)C2` (stereo not drawn) [Compound 223, 2-amino-7-[2-(6-chloro-pyridin-2-yl)-4-fluoro-phenyl]-4-methyl-7,8-dihydro-6H-quinazolin-5-one], the IC50 is less than 1000 nM.

Consider `Cc1nc(N)nc2c1C(=O)CC(c1ncsc1-c1ccccc1F)C2` (stereo not drawn) [Compound 302, 2-amino-7-[5-(2-fluoro-phenyl)-thiazol-4-yl]-4-methyl-7,8-dihydro-6H-quinazolin-5-one], for which the IC50 was less than 1000 nM.
